# Data: article PMC9927457 (Microbiology Spectrum, 2023)
# Legend:
# [1] = in vitro; settings: human; for Papp A→B at 2 h, 10 µM / Papp B→A at 2 h, 10 µM / efflux ratio at 2 h, 10 µM: Caco-2
# Procedure: (§1) Permeability was measured across Caco-2 cells cultured in a Millipore 96-well Caco-2 plate. For apical to basolateral (A→B) permeability, 10 μM compound was added to the apical (A) side and amount of permeation was determined on the basolateral (B) side; for basolateral to apical (B→A) permeability, the compound was added to the B side and the amount of permeation was determine on the A side. Time points were taken at 2 h.
# (§2) Table S2. Permeability. Permeability was measured using Caco-2 cells after 1 and 2 hours incubation with compound. (A→B) is Apical to Basolateral; (B→A) is Basolateral to Apical. Data is expressed as permeability (10-6 cm s-1). dQ/dt is rate of permeation, C0 is initial concentration […]
# (§3) Article Duration direction value replicate replicate mean recovery
# [2] = system: Caco-2 cells; test: Caco-2 permeability; settings: for recovery: human, 10 μM
# Procedure: as §1, §2, §3
# [3] = molecular target: SPase activity in M. tuberculosis H37Rv cell membrane fractions (Mycobacterium tuberculosis, UniProt P9WKA1); test: Inhibition of secretion (SPase activity) in membrane fractions; format: biochemical; settings: fluorogenic peptide substrate 2 μM; 4 h, 37 °C
# SPase activity in M. tuberculosis H37Rv cell membrane fractions, sequence (P9WKA1 whole entry): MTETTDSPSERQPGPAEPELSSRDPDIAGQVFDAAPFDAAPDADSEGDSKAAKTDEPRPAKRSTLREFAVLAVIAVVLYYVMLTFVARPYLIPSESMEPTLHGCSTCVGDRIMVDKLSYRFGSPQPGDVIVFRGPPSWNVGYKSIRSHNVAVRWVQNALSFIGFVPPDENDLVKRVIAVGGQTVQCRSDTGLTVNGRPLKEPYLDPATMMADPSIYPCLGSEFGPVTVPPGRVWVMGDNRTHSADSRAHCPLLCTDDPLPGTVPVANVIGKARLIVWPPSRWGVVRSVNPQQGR
# [4] = system: nonreplicating M. tuberculosis; test: Kill kinetics, nonreplicating (nutrient starved) bacteria; format: cell-based, Mycobacterium tuberculosis; settings: nutrient starvation, PBS-tyloxapol
# [5] = system: HepG2 cells; test: HepG2 cytotoxicity; format: cell-based, human; settings: Homo sapiens, HepG2, 72 h, 3 days exposure, CellTiter-Glo
# Procedure: HepG2 cells were used to measure eukaryotic cytotoxicity. Viability of HepG2 was measured using CellTiter-Glo reagent (Promega) after 3 days of exposure to compounds. […] Staurosporine controls (maximum inhibition) and a staurosporine dose response were included on every plate.
# [6] = system: M. tuberculosis wild-type strain; test: MIC against wild-type M. tuberculosis; format: cell-based, Mycobacterium tuberculosis; settings: concentration required to inhibit growth by 90%, 5 days culture
# [7] = system: M. tuberculosis strain under expressing LepB (LepB-UE); test: microbe, parasite or virus in culture; format: cell-based, Mycobacterium tuberculosis
SMILES,"Papp A→B at 2 h, 10 µM [1] [×10⁻⁶ cm/s]","Papp B→A at 2 h, 10 µM [1] [×10⁻⁶ cm/s]","efflux ratio at 2 h, 10 µM [1]","dQ/dt (rate of permeation), mean ([2]; A→B, assay duration 1 hr)","dQ/dt (rate of permeation), mean ([2]; A→B, assay duration 2 hr)","dQ/dt (rate of permeation), mean ([2]; B→A, assay duration 1 hr)","dQ/dt (rate of permeation), mean ([2]; B→A, assay duration 2 hr)",IC50 [3] [µM],concentration giving sterilization of nonreplicating organisms [4] [µM],IC50 [5] [µM],"recovery at 1 h, 10 μM ([1]; Caco-2, recovery) [%]","recovery at 2 h, 10 μM ([1]; Caco-2, recovery) [%]","recovery ([2]; Caco-2, 1 h) [%]","recovery ([2]; Caco-2, 2 h) [%]","MIC ([6]; Mycobacterium tuberculosis, 120 h, read-out: MIC Wild type) [µM]",MIC Wild type [6] [µM],MIC LepB-UE [7] [µM],"MIC ([7]; Mycobacterium tuberculosis, 120 h) [µM]"
"CCCCNC(=S)Nc1nc2ccccc2s1 [Molecule 1, 1-(benzo[d]thiazol-2-yl)-3-butylthiourea]",1.4,2.5,1.7,9.7E-06,2.1E-05,2.4E-05,3.8E-05,> 200,20,26 ± 12,–,–,–,–,–,–,–,–
"CCCCNC(=S)Nc1nc(C)co1 [Molecule 21, 1-butyl-3-(4-methyloxazol-2-yl)thiourea]",21,19,0.89,4.2E-04,3.0E-04,3.8E-04,2.8E-04,–,–,42 ± 12,59,56,77,67,10,10 ± 2.0,8.4 ± 3.4,8 to 9
